Data reported in ChEMBL document CHEMBL1135029, “Novel dihydropyrazine analogues as NPY antagonists” (Bioorg Med Chem Lett, 2002).

Target: T1, Neuropeptide Y receptor type 1 (Homo sapiens, UniProt P25929)
T1 sequence (P25929 whole entry): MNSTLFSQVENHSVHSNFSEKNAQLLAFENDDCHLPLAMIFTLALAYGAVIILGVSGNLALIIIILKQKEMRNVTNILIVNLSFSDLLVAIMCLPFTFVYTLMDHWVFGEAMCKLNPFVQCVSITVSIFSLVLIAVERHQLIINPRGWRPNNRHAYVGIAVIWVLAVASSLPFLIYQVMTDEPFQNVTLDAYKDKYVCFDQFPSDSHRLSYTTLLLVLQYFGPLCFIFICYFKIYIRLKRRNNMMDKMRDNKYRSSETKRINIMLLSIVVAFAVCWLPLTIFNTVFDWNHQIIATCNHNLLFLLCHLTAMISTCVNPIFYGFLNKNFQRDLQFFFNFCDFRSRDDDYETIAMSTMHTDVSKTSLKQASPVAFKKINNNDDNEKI
Assay: Binding affinity against Neuropeptide Y receptor type 1 using I-PYY as a radioligand in human neuroblastoma SK-N-MC cells
Assay type: cell-based

With `COC(=O)C1=C(C)N=C(C)/C(=C(/O)OC)C1c1cccc(NC(=O)NCCCN2CCC(c3cccc(OC)c3)CC2)c1` (stereo not drawn) the IC50 was 4.2 nM.

Target: T1, Neuropeptide Y receptor type 1
Assay: Inhibition of I-PYY binding to Nueopeptide Y1 receptor expressed in human neuroblastoma SK-N-MC cells
Assay type: cell-based

Point of comparison: `COC(=O)C1=C(C)N=C(C)/C(=C(/O)OC)N1c1cccc(N/C(=N/CCCN2CCC(c3ccccc3)CC2)NC#N)c1`, IC50 268 nM. Against it:
- COC(=O)C1=C(C)N=C(C)/C(=C(/O)OC)C1c1cccc(N/C(S)=N/CCCN2CCN(C3CCCCC3)CC2)c1 (stereo not drawn) — 2-fold lower, 132 nM
- COC(=O)C1=C(C)N=C(C)/C(=C(/O)OC)C1c1cccc(N/C(=N/CCCN2CCC(c3ccccc3)CC2)NC#N)c1 (stereo not drawn) — 50-fold lower, 5.4 nM
- COC(=O)C1=C(C)N=C(C)/C(=C(/O)OC)N1c1cccc(N/C(=N/CCCN2CCC(C(C)(C)C)CC2)NC#N)c1 — within 1.5-fold, 231 nM
- COC(=O)C1=C(C)N=C(C)/C(=C(/O)OC)N1c1cccc(NC(=O)NCCCN2CCN(C3CCCCC3)CC2)c1 — 1.6-fold higher, 434 nM
- COC(=O)C1=C(C)N=C(C)/C(=C(/O)OC)N1c1cccc(NC(=O)NCCCN2CCC(c3cccc(OC)c3)CC2)c1 — 2.1-fold higher, 554 nM
- COC(=O)C1=C(C)N=C(C)/C(=C(/O)OC)C1c1cccc(NC(=O)NCCCN2CCN(C3CCCCC3)CC2)c1 (stereo not drawn) — 1.5-fold lower, 176 nM
- COC(=O)C1=C(C)N=C(C)/C(=C(/O)OC)N1c1cccc(N/C(S)=N/CCCN2CCN(C3CCCCC3)CC2)c1 — higher, > 1000 nM
- COC(=O)C1=C(C)N=C(C)/C(=C(/O)OC)C1c1cccc(N/C(=N/CCCN2CCC(C(C)(C)C)CC2)NC#N)c1 (stereo not drawn) — lower, < 1 nM
- COC(=O)C1=C(C)N=C(C)/C(=C(/O)OC)C1c1cccc(N/C(S)=N/CCCN2CCC(c3cccc(OC)c3)CC2)c1 (stereo not drawn) — 21-fold lower, 12.8 nM
- COC(=O)C1=C(C)N=C(C)/C(=C(/O)OC)N1c1cccc(N/C(S)=N/CCCN2CCC(C(C)(C)C)CC2)c1 — higher, > 1000 nM
- COC(=O)C1=C(C)N=C(C)/C(=C(/O)OC)N1c1cccc(N/C(S)=N/CCCN2CCC(c3cccc(OC)c3)CC2)c1 — 3.5-fold higher, 945 nM
